Test results taken from ChEMBL document CHEMBL1201862, “PubChem BioAssay data set” (2004).
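48-hour exposure; five concentrations; linearly interpolated endpoints. GI50: concentration for 50% inhibition of growth.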 Calls of active or inactive are those of the source. Cut-off read from the data, not from the text of the source: active = GI50 up to about 1.1 µM and inactive = higher.

Assays:
Test in all cases: growth of human tumour cells (NCI), 48 h
K562 = system: K562
UACC-257 = system: UACC-257
OVCAR-4 = system: OVCAR-4
SK-MEL-5 = system: SK-MEL-5
HCT-15 = system: HCT-15
OVCAR-8 = system: OVCAR-8
SNB-19 = system: SNB-19
IGROV-1 = system: IGROV-1
OVCAR-5 = system: OVCAR-5
SN12C = system: SN12C
SNB-78 = system: SNB-78
COLO 205 = system: COLO 205
SNB-75 = system: SNB-75
MOLT-4 = system: MOLT-4
ACHN = system: ACHN
DMS-114 = system: DMS-114
LXFL 529 = system: LXFL 529
SW-620 = system: SW-620
U-251 = system: U-251
SK-OV-3 = system: SK-OV-3
NCI-H23 = system: NCI-H23
SF-295 = system: SF-295
DMS-273 = system: DMS-273
HOP-18 = system: HOP-18
DLD-1 = system: DLD-1
SF-539 = system: SF-539
HL-60 = system: HL-60
SF-268 = system: SF-268
A549 = system: A549
TK-10 = system: TK-10
RPMI-8226 = system: RPMI-8226
UO-31 = system: UO-31
EKVX = system: EKVX
CCRF-CEM = system: CCRF-CEM
LOX IMVI = system: LOX IMVI
Malme-3M = system: Malme-3M
HCC 2998 = system: HCC 2998
CAKI-1 = system: CAKI-1
SK-MEL-2 = system: SK-MEL-2
XF498 = system: XF498
M19-MEL = system: M19-MEL
RXF 393 = system: RXF 393
HOP-62 = system: HOP-62
KM-20L2 = system: KM-20L2
HT-29 = system: HT-29
786-0 = system: 786-0
M14 = system: M14
KM12 = system: KM12
HOP-92 = system: HOP-92
RXF 631 = system: RXF 631
HCT-116 = system: HCT-116
OVCAR-3 = system: OVCAR-3
UACC-62 = system: UACC-62
NCI-H460 = system: NCI-H460
A498 = system: A498
SR = system: SR
NCI-H226 = system: NCI-H226
SK-MEL-28 = system: SK-MEL-28
NCI-H522 = system: NCI-H522

Measured: GI50

CN1CCc2c1nc(-c1cccnc1)c1c2N(C)CC1
inactive: K562 > 100 µM | UACC-257 > 100 µM | OVCAR-4 > 100 µM | SK-MEL-5 > 100 µM | OVCAR-8 > 100 µM | SNB-19 > 100 µM | IGROV-1 > 100 µM | OVCAR-5 > 100 µM | SN12C > 100 µM | SNB-78 > 100 µM | COLO 205 > 100 µM | SNB-75 > 100 µM | MOLT-4 > 100 µM | ACHN > 100 µM | DMS-114 > 100 µM | LXFL 529 > 100 µM | SW-620 > 100 µM | U-251 > 100 µM | SK-OV-3 > 100 µM | NCI-H23 > 100 µM | SF-295 > 100 µM | DMS-273 > 100 µM | HOP-18 60.4 µM | DLD-1 > 100 µM | SF-539 > 100 µM | HL-60 > 100 µM | SF-268 > 100 µM | A549 > 100 µM | TK-10 > 100 µM | RPMI-8226 > 100 µM | UO-31 48.8 µM | EKVX > 100 µM | CCRF-CEM > 100 µM | LOX IMVI > 100 µM | Malme-3M > 100 µM | HCC 2998 > 100 µM | CAKI-1 > 100 µM | SK-MEL-2 > 100 µM | XF498 > 100 µM | M19-MEL > 100 µM | RXF 393 > 100 µM | HOP-62 > 100 µM | KM-20L2 97.1 µM | HT-29 95.3 µM | 786-0 > 100 µM | M14 > 100 µM | KM12 > 100 µM | HOP-92 88.5 µM | RXF 631 > 100 µM | HCT-116 > 100 µM | OVCAR-3 65.8 µM | UACC-62 > 100 µM | NCI-H460 > 100 µM | A498 52 µM
> 100 µM: HCT-15

CC1=C(C(=O)NNS(=O)(=O)c2ccc(C)cc2)CC(C(=O)NNS(=O)(=O)c2ccc(C)cc2)=C(C)N1
inactive: K562 56.9 µM | UACC-257 > 100 µM | OVCAR-4 > 100 µM | OVCAR-8 > 100 µM | SNB-19 > 100 µM | IGROV-1 > 100 µM | OVCAR-5 70.1 µM | SN12C > 100 µM | SR 61.1 µM | SNB-78 > 100 µM | COLO 205 > 100 µM | MOLT-4 46.8 µM | ACHN 84.9 µM | DMS-114 > 100 µM | NCI-H226 > 100 µM | LXFL 529 52.1 µM | SW-620 > 100 µM | U-251 > 100 µM | SK-OV-3 > 100 µM | NCI-H23 > 100 µM | SF-295 > 100 µM | SK-MEL-28 > 100 µM | HOP-18 27.1 µM | DLD-1 > 100 µM | SF-539 > 100 µM | HL-60 55.1 µM | SF-268 > 100 µM | A549 > 100 µM | TK-10 56.4 µM | RPMI-8226 36.2 µM | UO-31 > 100 µM | EKVX > 100 µM | CCRF-CEM > 10 µM | LOX IMVI > 100 µM | NCI-H522 66.5 µM | Malme-3M > 100 µM | HCC 2998 > 100 µM | CAKI-1 94.2 µM | SK-MEL-2 > 100 µM | XF498 > 100 µM | M19-MEL 98.9 µM | RXF 393 92.7 µM | HOP-62 > 100 µM | KM-20L2 > 100 µM | HT-29 > 100 µM | 786-0 > 100 µM | M14 > 100 µM | KM12 > 100 µM | RXF 631 > 100 µM | HCT-116 > 100 µM | OVCAR-3 > 100 µM | UACC-62 14.3 µM | NCI-H460 > 100 µM
> 100 µM: HCT-15

Cn1cnc([N+](=O)[O-])c1Sc1ccccn1
inactive: K562 > 100 µM | UACC-257 > 100 µM | OVCAR-4 > 100 µM | SK-MEL-5 > 100 µM | OVCAR-8 > 100 µM | SNB-19 > 100 µM | IGROV-1 > 100 µM | OVCAR-5 > 100 µM | SN12C > 100 µM | SR 50.6 µM | SNB-78 > 100 µM | COLO 205 76.4 µM | SNB-75 > 100 µM | MOLT-4 38.5 µM | ACHN > 100 µM | DMS-114 > 100 µM | NCI-H226 > 100 µM | LXFL 529 70.5 µM | SW-620 > 100 µM | U-251 > 100 µM | SK-OV-3 > 100 µM | NCI-H23 > 100 µM | SF-295 > 100 µM | SK-MEL-28 > 100 µM | DMS-273 > 100 µM | HOP-18 14.9 µM | DLD-1 > 100 µM | SF-539 > 100 µM | SF-268 > 100 µM | A549 > 100 µM | TK-10 > 100 µM | RPMI-8226 > 100 µM | UO-31 87.1 µM | EKVX > 100 µM | CCRF-CEM 48.9 µM | LOX IMVI > 100 µM | NCI-H522 74.3 µM | Malme-3M 68.4 µM | HCC 2998 > 100 µM | CAKI-1 > 100 µM | SK-MEL-2 74.6 µM | XF498 36.3 µM | M19-MEL > 100 µM | HOP-62 > 100 µM | HT-29 > 100 µM | 786-0 > 100 µM | M14 > 100 µM | KM12 > 100 µM | HOP-92 > 100 µM | RXF 631 > 100 µM | HCT-116 > 100 µM | OVCAR-3 > 100 µM | UACC-62 > 100 µM | NCI-H460 > 100 µM | A498 > 100 µM
